The source of these data is patent publication US8648081B2 (Eli Lilly and Company, priority 2011, dated 2014).

Structures are written as SMILES.

The experiment concerns Lone star tick larvae (Amblyomma americanum). In words: In Vitro Larval Immersion Microassay (LIM). Particulars: read-out: % Efficacy (percent larval mortality).

In general, mortality refers to the percentage killed. For `O=C(CNC(=O)c1cnc2sc(C3=NOC(c4cc(Cl)cc(Cl)c4)(C(F)(F)F)C3)cc2c1)NCC(F)(F)F` (centres unmarked) [Example 240, 2-(5-(3,5-dichlorophenyl)-5-(trifluoromethyl)-4,5-dihydroisoxazol-3-yl)-N-(2-oxo-2-(2,2,2-trifluoroethylamino)ethyl)thieno[2,3-b]pyridine-5-carboxamide], the mortality at 300 µM was at least 80%.
Take `O=C(N[C@@H]1CCNC1=O)c1cnc2sc(C3=NOC(c4cc(Cl)cc(Cl)c4)(C(F)(F)F)C3)cc2c1` (stereo partly drawn) [Example 241, 2-(5-(3,5-dichloro-phenyl)-5-(trifluoro-methyl)-4,5-dihydro-isoxazol-3-yl)-N-((R)-2-oxopyrrolidin-3-yl)thieno[2,3-b] pyridine-5-carboxamide]: the mortality at 300 µM was at least 80%.
Regarding `O=C(CNC(=O)c1sc(C2=NO[C@@](c3cc(Cl)c(F)c(Cl)c3)(C(F)(F)F)C2)c2c1CCC2)NCC(F)(F)F` [Example 243, (S)-3-(5-(3,5-dichloro-4-fluorophenyl)-5-(trifluoromethyl)-4,5-dihydroisoxazol-3-yl)-N-(2-oxo-2-(2,2,2-trifluoroethylamino)ethyl)-5,6-dihydro-4H-cyclopenta[c]thiophene-1-carboxamide], the mortality at 300 µM is at least 80%.
For the compound `O=C(CNC(=O)c1sc(C2=NOC(c3cc(Cl)c(F)c(Cl)c3)(C(F)(F)F)C2)c2c1CCC2)NCC(F)F` (centres unmarked) [Example 244, 3-[5-(3,5-dichloro-4-fluoro-phenyl)-5-trifluoromethyl-4,5-dihydro-isoxazol-3-yl]-5,6-dihydro-4H-cyclopenta[c]thiophene-1-carboxylic acid [(2,2-difluoro-ethylcarbamoyl)-methyl]-amide], the mortality at 300 µM is at least 80%.
For `O=C(CNC(=O)c1sc(C2=NO[C@@](c3cc(Cl)c(F)c(Cl)c3)(C(F)(F)F)C2)c2c1CCC2)NCC(F)F` [Example 245, (S)-3-[5-(3,5-dichloro-4-fluoro-phenyl)-5-trifluoromethyl-4,5-dihydro-isoxazol-3-yl]-5,6-dihydro-4H-cyclopenta[c]thiophene-1-carboxylic acid [(2,2-difluoro-ethylcarbamoyl)-methyl]-amide], the mortality at 300 µM was at least 80%.
In the case of `O=C(CNC(=O)c1sc(C2=NOC(c3cc(Cl)c(F)c(Cl)c3)(C(F)(F)F)C2)c2c1CCC2)NCCF` (centres unmarked) [Example 246, 3-[5-(3,5-Dichloro-4-fluoro-phenyl)-5-trifluoromethyl-4,5-dihydro-isoxazol-3-yl]-5,6-dihydro-4H-cyclopenta[c]thiophene-1-carboxylic acid [(2-fluoro-ethylcarbamoyl)-methyl]-amide] it was at least 80%; in that of `O=C(CNC(=O)c1sc(C2=NO[C@@](c3cc(Cl)c(F)c(Cl)c3)(C(F)(F)F)C2)c2c1CCC2)NCCF` [Example 247, (S)-3-[5-(3,5-Dichloro-4-fluoro-phenyl)-5-trifluoromethyl-4,5-dihydro-isoxazol-3-yl]-5,6-dihydro-4H-cyclopenta[c]thiophene-1-carboxylic acid [(2-fluoro-ethylcarbamoyl)-methyl]-amide], at least 80%.
Turning to `C#CCNC(=O)CNC(=O)c1sc(C2=NO[C@@](c3cc(Cl)c(F)c(Cl)c3)(C(F)(F)F)C2)c2c1CCC2` [Example 249, (S)-3-(5-(3,5-dichloro-4-fluorophenyl)-5-(trifluoromethyl)-4,5-dihydroisoxazol-3-yl)-N-(2-oxo-2-(prop-2-ynylamino)ethyl)-5,6-dihydro-4H-cyclopenta[c]thiophene-1-carboxamide], the mortality at 300 µM is at least 80%.
